In ChEMBL document CHEMBL1201862, “PubChem BioAssay data set” (2004):
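The compound was tested at five concentrations on cells cultured in 96-well plates, with a 48-hour exposure period. GI50 marks 50% less growth.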 The source made the active and inactive calls. Rule as the data show it: active = GI50 up to about 1.1 µM and inactive = higher.

What was measured:
Assay in all cases: inhibition of tumour cell growth, NCI panel, 48 h
NCI-H460 = test system: NCI-H460
HCT-116 = test system: HCT-116
OVCAR-5 = test system: OVCAR-5
SK-MEL-28 = test system: SK-MEL-28
ACHN = test system: ACHN
SNB-19 = test system: SNB-19
TK-10 = test system: TK-10
MOLT-4 = test system: MOLT-4
Malme-3M = test system: Malme-3M
SNB-75 = test system: SNB-75
UACC-62 = test system: UACC-62
SF-539 = test system: SF-539
NCI-H226 = test system: NCI-H226
SK-MEL-2 = test system: SK-MEL-2
HOP-92 = test system: HOP-92
OVCAR-8 = test system: OVCAR-8
HL-60 = test system: HL-60
SF-295 = test system: SF-295
RPMI-8226 = test system: RPMI-8226
HCC 2998 = test system: HCC 2998
M14 = test system: M14
CCRF-CEM = test system: CCRF-CEM
LOX IMVI = test system: LOX IMVI
RXF 393 = test system: RXF 393
HT-29 = test system: HT-29
HOP-62 = test system: HOP-62
KM12 = test system: KM12
XF498 = test system: XF498
OVCAR-4 = test system: OVCAR-4
A498 = test system: A498
K562 = test system: K562
HOP-18 = test system: HOP-18
EKVX = test system: EKVX
SK-OV-3 = test system: SK-OV-3
HCT-15 = test system: HCT-15
OVCAR-3 = test system: OVCAR-3
IGROV-1 = test system: IGROV-1
KM-20L2 = test system: KM-20L2
NCI-H522 = test system: NCI-H522
NCI-H23 = test system: NCI-H23
SF-268 = test system: SF-268
U-251 = test system: U-251
UO-31 = test system: UO-31
DLD-1 = test system: DLD-1
M19-MEL = test system: M19-MEL
UACC-257 = test system: UACC-257
SN12C = test system: SN12C
786-0 = test system: 786-0
A549 = test system: A549
LXFL 529 = test system: LXFL 529
SW-620 = test system: SW-620
SNB-78 = test system: SNB-78
COLO 205 = test system: COLO 205
SK-MEL-5 = test system: SK-MEL-5
DMS-273 = test system: DMS-273
SR = test system: SR
DMS-114 = test system: DMS-114
CAKI-1 = test system: CAKI-1
DU-145 = test system: DU-145
MCF7 = test system: MCF7
PC-3 = test system: PC-3
MDA-N = test system: MDA-N
MDA-MB-435 = test system: MDA-MB-435
MDA-MB-231 = test system: MDA-MB-231
T47D = test system: T47D
Hs-578T = test system: Hs-578T
NCI/ADR-RES = test system: NCI/ADR-RES

Measured: GI50

CCNc1nc2c(=O)n(C)c(=O)n(C)c2s1
> 100 µM: HCT-15
inactive: NCI-H460 > 100 µM | HCT-116 > 100 µM | OVCAR-5 > 100 µM | SK-MEL-28 > 100 µM | ACHN > 100 µM | SNB-19 > 100 µM | TK-10 > 100 µM | MOLT-4 > 100 µM | Malme-3M > 100 µM | SNB-75 > 100 µM | UACC-62 > 100 µM | SF-539 > 100 µM | NCI-H226 > 100 µM | SK-MEL-2 > 100 µM | HOP-92 > 100 µM | OVCAR-8 > 100 µM | HL-60 > 100 µM | SF-295 > 100 µM | RPMI-8226 > 100 µM | HCC 2998 > 100 µM | M14 > 100 µM | CCRF-CEM > 100 µM | LOX IMVI > 100 µM | RXF 393 > 100 µM | HT-29 > 100 µM | HOP-62 > 100 µM | KM12 > 100 µM | XF498 > 100 µM | OVCAR-4 > 100 µM | A498 > 100 µM | K562 > 100 µM | HOP-18 > 100 µM | EKVX > 100 µM | SK-OV-3 > 100 µM | OVCAR-3 > 100 µM | IGROV-1 > 100 µM | KM-20L2 > 100 µM | NCI-H522 > 100 µM | NCI-H23 > 100 µM | SF-268 > 100 µM | U-251 > 100 µM | UO-31 > 100 µM | DLD-1 > 100 µM | M19-MEL > 100 µM | UACC-257 > 100 µM | SN12C > 100 µM | 786-0 > 100 µM | A549 > 100 µM | LXFL 529 > 100 µM | SW-620 > 100 µM | SNB-78 > 100 µM | COLO 205 > 100 µM

COc1cc(C(O)C(=O)c2nc3ccc([N+](=O)[O-])cc3nc2O)ccc1O (stereo not given)
inactive: NCI-H460 > 100 µM | HCT-116 > 100 µM | OVCAR-5 > 100 µM | SK-MEL-28 26.4 µM | ACHN 54.2 µM | SNB-19 > 100 µM | TK-10 > 100 µM | MOLT-4 > 100 µM | Malme-3M > 100 µM | UACC-62 73.1 µM | SF-539 58.1 µM | SK-MEL-5 81.1 µM | NCI-H226 > 100 µM | SK-MEL-2 > 100 µM | OVCAR-8 > 100 µM | HL-60 70.5 µM | SF-295 > 100 µM | RPMI-8226 77.3 µM | HCC 2998 74.1 µM | M14 > 100 µM | CCRF-CEM 40.7 µM | LOX IMVI 40.1 µM | HT-29 > 100 µM | DMS-273 83.9 µM | HOP-62 > 100 µM | KM12 > 100 µM | XF498 > 100 µM | OVCAR-4 > 100 µM | A498 34.6 µM | SR > 100 µM | K562 57.1 µM | EKVX 90.6 µM | DMS-114 66.8 µM | SK-OV-3 > 100 µM | OVCAR-3 > 100 µM | IGROV-1 > 100 µM | KM-20L2 69.7 µM | CAKI-1 > 100 µM | NCI-H522 18.8 µM | NCI-H23 > 100 µM | SF-268 > 100 µM | U-251 > 100 µM | UO-31 > 100 µM | DLD-1 > 100 µM | M19-MEL > 100 µM | UACC-257 > 10 µM | SN12C > 100 µM | 786-0 > 100 µM | A549 98.9 µM | LXFL 529 35.8 µM | SW-620 > 100 µM | SNB-78 > 100 µM | COLO 205 > 100 µM
> 100 µM: HCT-15

C(=N/NC1=NCCN1)/c1c2ccccc2c(/C=N\NC2=NCCN2)c2ccccc12
active: NCI-H460 0.0279 µM | HCT-116 0.0603 µM | OVCAR-5 0.239 µM | SK-MEL-28 0.259 µM | ACHN 0.221 µM | DU-145 0.0619 µM | SNB-19 0.0746 µM | TK-10 1.03 µM | MOLT-4 0.0376 µM | Malme-3M 0.16 µM | SNB-75 0.0735 µM | MCF7 0.0568 µM | UACC-62 0.0902 µM | SF-539 0.1 µM | SK-MEL-5 0.26 µM | NCI-H226 0.0966 µM | SK-MEL-2 0.147 µM | HOP-92 0.0731 µM | OVCAR-8 0.252 µM | PC-3 0.0687 µM | HL-60 0.0528 µM | SF-295 0.383 µM | RPMI-8226 0.0826 µM | HCC 2998 0.14 µM | M14 0.171 µM | MDA-N 0.113 µM | CCRF-CEM 0.0408 µM | LOX IMVI 0.0931 µM | RXF 393 0.155 µM | HT-29 0.0923 µM | DMS-273 0.0759 µM | HOP-62 0.0966 µM | KM12 0.0885 µM | XF498 0.0828 µM | OVCAR-4 0.302 µM | A498 0.324 µM | SR 0.00879 µM | MDA-MB-435 0.0376 µM | K562 0.0664 µM | HOP-18 0.168 µM | EKVX 0.149 µM | SK-OV-3 0.177 µM | OVCAR-3 0.184 µM | IGROV-1 0.211 µM | KM-20L2 0.265 µM | CAKI-1 0.526 µM | NCI-H522 0.0698 µM | T47D 0.11 µM | NCI-H23 0.129 µM | SF-268 0.0738 µM | U-251 0.061 µM | M19-MEL 0.0757 µM | UACC-257 0.344 µM | SN12C 0.111 µM | 786-0 0.0991 µM | A549 0.0369 µM | Hs-578T 0.06 µM | SW-620 0.113 µM | SNB-78 0.171 µM | COLO 205 0.054 µM
inactive: MDA-MB-231 6.56 µM | UO-31 9.44 µM | DLD-1 2.83 µM | NCI/ADR-RES 88.3 µM
19.7 µM: HCT-15

CN(C(=O)c1ccco1)C(=S)N1CCN(c2ccccn2)CC1
> 100 µM: HCT-15
inactive: NCI-H460 > 100 µM | HCT-116 > 100 µM | OVCAR-5 > 100 µM | SK-MEL-28 > 100 µM | ACHN > 100 µM | SNB-19 > 100 µM | TK-10 > 100 µM | MOLT-4 > 100 µM | Malme-3M > 100 µM | SNB-75 > 100 µM | UACC-62 > 100 µM | SF-539 > 100 µM | SK-MEL-5 > 100 µM | NCI-H226 > 100 µM | SK-MEL-2 > 100 µM | HOP-92 > 100 µM | OVCAR-8 > 100 µM | HL-60 > 100 µM | SF-295 > 100 µM | RPMI-8226 > 100 µM | M14 > 100 µM | CCRF-CEM > 100 µM | LOX IMVI > 100 µM | RXF 393 > 100 µM | HT-29 > 100 µM | DMS-273 > 100 µM | HOP-62 > 100 µM | KM12 > 100 µM | XF498 > 100 µM | OVCAR-4 > 100 µM | K562 > 100 µM | HOP-18 > 100 µM | SK-OV-3 > 100 µM | OVCAR-3 > 100 µM | IGROV-1 > 100 µM | KM-20L2 > 100 µM | CAKI-1 > 100 µM | NCI-H522 > 100 µM | NCI-H23 > 100 µM | SF-268 > 100 µM | U-251 > 100 µM | UO-31 > 100 µM | DLD-1 > 100 µM | M19-MEL > 100 µM | UACC-257 > 100 µM | SN12C > 100 µM | 786-0 > 100 µM | A549 > 100 µM | LXFL 529 > 100 µM | SW-620 > 100 µM | SNB-78 > 100 µM | COLO 205 > 100 µM

COC(OC)C(C)CC(=O)N(C)C (stereo not given)
inactive: NCI-H460 > 100 µM | HCT-116 > 100 µM | OVCAR-5 > 100 µM | SK-MEL-28 > 100 µM | ACHN > 100 µM | SNB-19 > 100 µM | TK-10 > 100 µM | MOLT-4 > 100 µM | SNB-75 > 100 µM | UACC-62 > 100 µM | SF-539 > 100 µM | SK-MEL-5 > 100 µM | NCI-H226 > 100 µM | SK-MEL-2 > 100 µM | HOP-92 > 100 µM | OVCAR-8 > 100 µM | HL-60 > 100 µM | SF-295 > 100 µM | RPMI-8226 > 100 µM | HCC 2998 > 100 µM | M14 > 100 µM | CCRF-CEM > 100 µM | LOX IMVI > 100 µM | HT-29 > 100 µM | DMS-273 > 100 µM | HOP-62 > 100 µM | KM12 > 100 µM | XF498 > 100 µM | OVCAR-4 > 100 µM | A498 > 100 µM | K562 > 100 µM | EKVX > 100 µM | DMS-114 > 100 µM | SK-OV-3 > 100 µM | OVCAR-3 > 100 µM | IGROV-1 > 100 µM | KM-20L2 > 100 µM | SF-268 > 100 µM | U-251 > 100 µM | UO-31 > 100 µM | DLD-1 > 100 µM | M19-MEL > 100 µM | SN12C > 100 µM | 786-0 > 100 µM | A549 > 100 µM | LXFL 529 > 100 µM | SW-620 > 100 µM | SNB-78 > 100 µM | COLO 205 > 100 µM
> 100 µM: HCT-15
